Several values for one entry are separate records, joined by “and”; a condition that tells them apart may be missing. Equal entries are not always repeated. Where two headings read alike, the source gives them in different places.
Assay: Tumour pharmacokinetics: fenretinide and metabolite levels in plasma and tumours of xenografted mice
Assay type: in vivo
Conditions: for concentration at 3 h: female, mouse, oral
Protocol: The determination of fenretinide in plasma of mice and the others biological samples was determined according to a method specifically developed and validated for the quantification of fenretinide (4-HPR) based on liquid chromatography-tandem mass spectrometry (LC–MS/MS) (manuscript in preparation). The procedure of sample preparation and quantification can be summarized as follows. 30 μL aliquot of plasma was added with 3 ng of deuterated internal standard (^2H4 4-HPR), deproteinized by mean of 90 μL of acetonitrile and centrifuged 5 min at 13200 rpm at room temperature. The supernatant was recovered and 5 μL injected into a HPLC system (Series 200, Perkin Elmer, MA, USA). Chromatographic separation was achieved on a Gemini-C18 column (50 mm × 2.0 mm, 5 μm particle size; Phenomenex Inc., Torrance, CA, USA) at 32 °C protected with a Security Guard™ ULTRA cartridges C18. The detection obtained by Mass spectrometric detection was carried out on a triple quadrupole API 4000 mass spectrometer (Sciex, MA, USA) equipped with atmospheric pressure chemical ionization source (APCI) operating in positive ion mode monitoring the transitions 392.3 > 283.2 m/z for 4-HPR and 396.3 > 283.2 m/z for the deuterated internal standard. To assay study samples, a calibration curve of six points (range: 1.0–500.00 ng/mL) was prepared in control mouse plasma assessing the precision and the accuracy of the run analyzing at the same time a set of freshly prepared quality controls samples. The Limit Of Quantification of the method was 1 ng/mL in plasma and urine and 50 ng/g in faeces.
Cell suspensions of lung and colon cancer and melanoma CSC lines were mixed 1:1 with Growth Factor-Reduced Matrigel (Beckton Dickinsons) and injected subcutaneously in both flanks of 5-week-old female NOD-SCID (non-obese diabetic/severe combined immunodeficiency) mice in the case of colon and melanoma or NSG (non-obese diabetic/severe combined immunodeficiency gamma chain deficient) mice in the case of lung (Charles River, Wilmington, MA, USA). For drug treatment, when tumours reached a mean diameter of 0.5 cm, groups of 6 mice were randomized into 3 groups and treated with vehicle, with Bio-nFeR (50,100 or 150 mg/kg as described) freshly dissolved in sterile water or with the standard formulation NCI-FeR that reproduce NCI capsule (50 or 100 mg/Kg). Treatments were administered by oral gavage 5 days on and 2 days off for 3 weeks. Tumours were measured twice a week using a caliper, and mice were monitored for signs of drug-induced toxicity and weighed regularly. At the end of treatments, in a study paralleling the assessment of antitumour activity, tumours and blood samples were collected for pharmacokinetic and molecular studies 3 hours after the last drug administration. Collection of blood, plasma separation and storing were as previously described. Immediately after blood collection mice were sacrificed by cervical dislocation, tumours removed rapidly frozen in liquid nitrogen and stored in small pieces at − 80 °C for subsequent fenretinide determination, protein and lipid analyses. All procedures were performed with the approval of the Ethics Committee for Animal Experimentation.

[1] = colon cancer xenograft mice, Bio-nFeR 150 mg/kg, Suppl. Table 5
[2] = colon cancer xenograft, Bio-nFeR 150 mg/kg, Suppl. Table 5
[3] = lung cancer xenograft mice, Bio-nFeR 100 mg/kg, Suppl. Table 5
[4] = lung cancer xenograft, Bio-nFeR 100 mg/kg, Suppl. Table 5
[5] = melanoma xenograft mice, Bio-nFeR 100 mg/kg, Suppl. Table 5
[6] = melanoma xenograft, Bio-nFeR 100 mg/kg, Suppl. Table 5

Q: Which results are given for CC1=C(/C=C/C(C)=C/C=C/C(C)=C/C(=O)Nc2ccc(O)cc2)C(C)(C)CCC1=O [4-oxo-4-HPR]?
A: Mean concentration (±sd), Plasma [1]: 3519 (1319) ng/ml; Mean concentration (±sd), Tumor [2]: 2514 (189) ng/ml; Mean concentration (±sd), Plasma [3]: 2142 (374) ng/ml; Mean concentration (±sd), Tumor [4]: 2028 (150) ng/ml; Mean concentration (±sd), Plasma [5]: 1226 (220) ng/ml; Mean concentration (±sd), Tumor [6]: 2323(134) ng/ml

Q: With COc1ccc(NC(=O)\C=C(C)/C=C/C=C(C)\C=C\C2=C(C)CCCC2(C)C)cc1 [MPR] as the compound, how does the “Mean concentration (±sd), Plasma” value [1] read?
A: Its value is 790 (261) ng/ml.

Q: And the “Mean concentration (±sd), Tumor” value [2]?
A: Its value is 1090 (503) ng/ml.

Q: And the “Mean concentration (±sd), Plasma” value [3]?
A: Its value is 394 (68) ng/ml.

Q: What about the “Mean concentration (±sd), Tumor” value [4] of the same compound?
A: The value was 2282 (598) ng/ml.

Q: And the “Mean concentration (±sd), Plasma” value [5]?
A: The value was 190 (32) ng/ml.

Q: What about the “Mean concentration (±sd), Tumor” value [6] of the same compound?
A: Its value is 707 (476) ng/ml.

Q: For CC1=C(/C=C/C(C)=C/C=C/C(C)=C/C(=O)Nc2ccc(O)cc2)C(C)(C)CCC1 [4-HPR, 4-hydroxy (phenyl)retinamide, reference compound], which concentration at 3 h (NOD-SCID (colon, melanoma), NSG (lung), tumour, both drug doses analyzed (Bio-nFeR 100 and 150 mg/kg), three xenograft models, read-out: intra-tumour concentration) is on record?
A: The concentration at 3 h was 1880 ng/g to 2230 ng/g and 4.8 µM to 5.7 µM.

Q: What about the concentration at 3 h (NOD-SCID, colon cancer xenograft, Bio-nFeR 150 mg/kg, tumour density assumed =1, read-out: Mean 4-HPR concentration: Tumor) of the same compound?
A: Its concentration at 3 h is 4.8 µM.

Q: And the concentration at 3 h (NOD-SCID, melanoma xenograft, Bio-nFeR 100 mg/kg, tumour density assumed =1, read-out: Mean 4-HPR concentration: Tumor)?
A: Its concentration at 3 h is 5.4 µM.

Q: What about the concentration at 3 h (NOD-SCID, plasma, colon cancer xenograft mice, Bio-nFeR 150 mg/kg, Suppl. Table 5, read-out: Mean concentration (±sd), Plasma) of the same compound?
A: Its concentration at 3 h is 4990 ng/mL.

Q: What about the concentration at 3 h (NOD-SCID, plasma, colon cancer xenograft mice, Bio-nFeR 150 mg/kg, read-out: Mean 4-HPR concentration: Plasma) of the same compound?
A: The concentration at 3 h was 12.1 µM.

Q: What about the concentration at 3 h (NOD-SCID, plasma, melanoma xenograft mice, Bio-nFeR 100 mg/kg, Suppl. Table 5, read-out: Mean concentration (±sd), Plasma) of the same compound?
A: Its concentration at 3 h is 1710 ng/mL.

Q: What about the concentration at 3 h (NOD-SCID, plasma, melanoma xenograft mice, Bio-nFeR 100 mg/kg, read-out: Mean 4-HPR concentration: Plasma) of the same compound?
A: The concentration at 3 h was 4.7 µM.

Q: And the concentration at 3 h (NOD-SCID, tumour, colon cancer xenograft, Bio-nFeR 150 mg/kg, Suppl. Table 5, read-out: Mean concentration (±sd), Tumor)?
A: Its concentration at 3 h is 1880 ng/mL.

Q: And the concentration at 3 h (NOD-SCID, tumour, colon cancer xenograft, Bio-nFeR 150 mg/kg, read-out: Mean 4-HPR concentration ± (sd): Tumor)?
A: The concentration at 3 h was 1880 ng/g.

Q: And the concentration at 3 h (NOD-SCID, tumour, melanoma xenograft, Bio-nFeR 100 mg/kg, Suppl. Table 5, read-out: Mean concentration (±sd), Tumor)?
A: Its concentration at 3 h is 2130 ng/mL.

Q: What about the concentration at 3 h (NOD-SCID, tumour, melanoma xenograft, Bio-nFeR 100 mg/kg, read-out: Mean 4-HPR concentration ± (sd): Tumor) of the same compound?
A: The concentration at 3 h was 2130 ng/g.

Q: What about the concentration at 3 h (NSG, lung cancer xenograft, Bio-nFeR 100 mg/kg, tumour density assumed =1, read-out: Mean 4-HPR concentration: Tumor) of the same compound?
A: Its concentration at 3 h is 5.7 µM.

Q: And the concentration at 3 h (NSG, plasma, lung cancer xenograft mice, Bio-nFeR 100 mg/kg, Suppl. Table 5, read-out: Mean concentration (±sd), Plasma)?
A: Its concentration at 3 h is 3450 ng/mL.

Q: And the concentration at 3 h (NSG, plasma, lung cancer xenograft mice, Bio-nFeR 100 mg/kg, read-out: Mean 4-HPR concentration: Plasma)?
A: The concentration at 3 h was 8.8 µM.

Q: What about the concentration at 3 h (NSG, tumour, lung cancer xenograft, Bio-nFeR 100 mg/kg, Suppl. Table 5, read-out: Mean concentration (±sd), Tumor) of the same compound?
A: The concentration at 3 h was 2230 ng/mL.

Q: And the concentration at 3 h (NSG, tumour, lung cancer xenograft, Bio-nFeR 100 mg/kg, read-out: Mean 4-HPR concentration ± (sd): Tumor)?
A: Its concentration at 3 h is 2230 ng/g.

— paper PMC6706930, “A novel oral micellar fenretinide formulation with enhanced bioavailability and antitumour activity against multiple tumours from cancer stem cells” (Journal of Experimental & Clinical Cancer Research : CR, 2019)
